Test results from patent US20070077283A1, “METHOD OF ENHANCING TRANSMUCOSAL DELIVERY OF THERAPEUTIC COMPOUNDS” (Nastech Pharmaceutical Company Inc., priority 2005, published 2007).

Experiments:
[1] = tested on: ciliary function in epithelial cell cultures; settings: Hingley et al. 1986; cited from earlier work
[2] = tested on: human-derived tracheal/bronchial epithelial cells (EpiAirway Tissue Model); experiment: TER recovery / TER time course; format: cell-based; settings: lipids 500 μM, PN159 25 μM
Description: TER recovery was calculated as described in the above paragraph.
Reversibility is a critical factor in selecting epithelial cell permeabiling enhancers since the barrier function of the epithelial cells serves as the first line of defense against pathogens and the entrance of toxins into the body. The permeation enhancing lipids C16 PAF; C18 PAF; C16 Enantiomeric PAF; POVPC; C16-04: 1 PC and PGPC were incubated with a monolayer of human-derived tracheal/bronchial epithelial cells (EpiAirway™ Model System) and TER […] The lipid glucosyl sphingosine was also tested. Each permeation enhancing lipid (except PGPC) was applied at a concentration of 1000 μM for 15, 30 and 60 minutes. The permeation enhancing lipid PGPC and the lipid glucosyl sphingosine were applied at a concentration of 500 μM for 1, 3, 5, 30 and 60 minutes. TER measurements were taken immediately after each application to determine how quickly each lipid could reduce TER.
[…] […] PBS served as a negative control and Triton-X100™ served as a positive control.
To asses how quickly the cells recovered after application and removal of the permeation enhancing lipid PGPC and the lipid glucosyl sphingosine, TER measurements were taken at 1, 3, 5, 7, and 9 hours post-treamtnet for each of the prior mentioned timed treatments (i.e., 1, 3, 5, 15, 30 and 60 minutes). TER recovery measures the reversibility of the lipid mediated effect on an epithelia. […] Hyptonic PBS served as a negative control for TER reduction and TER recovery.

[3] = tested on: human-derived tracheal/bronchial epithelial cells (EpiAirway Tissue Model); experiment: Cell viability (MTT assay); format: cell-based
Description: Cell viability will be assessed using the MTT assay (MTT-100, MatTek kit). This kit measures the uptake and transformation of tetrazolium salt to formazan dye. Thawed and diluted MTT concentrate is prepared 1 hour prior to the end of the dosing period with the lipid by mixing 2 mL of MTT concentrate with 8 mL of MTT diluent. Each cell culture insert is washed twice with PBS containing Ca^+2 and Mg^+2 and then transferred to a new 96-well transport plate containing 100 μL of the mixed MTT solution per well. This 96-well transport plate is then incubated for three hours at 37° C. and 5% CO2. After the three hour incubation, the MTT solution is removed and the cultures are transferred to a second 96-well feeder tray containing 250 μL MTT extractant solution per well. An additional 150 μL of MTT extractan solution was added to the surface of each culture well and the samples sat at room temperature in the dark for a minimum of two hours and maximum of 24 hours. The insert membrane was then pierced with a pipet tip and the solutions in the upper and lower wells were allowed to mix. Two hundred microliters of the mixed extracted solution along with extracted blanks (negative control) was transferred to a 96-well plate for measurement with a microplate reader. The optical density (OD) of the samples was measured at 570 nm with the background subtraction at 650 nm on a plate reader. Cell viability was expressed as a percentage and calculated by dividing the OD readings for treated inserts by the OD readings for the PBS treated inserts and multiplying by 100. For the purposes of this assay, it was assumed that PBS had no effect on cell viability and therefore represented 100% cell viability.

[4] = tested on: human-derived tracheal/bronchial epithelial cells (EpiAirway Tissue Model); experiment: Transepithelial electrical resistance (TER) of an epithelial cell monolayer; format: cell-based
Description: Inserts are feed for each day of recovery. TER measurements were accomplished using the Endohm-12 Tissue Resistance Measurement Chamber connected to the EVOM Epithelial Voltohmmeter (World Precision Instruments, Sarasota, Fla.) with the electrode leads. The electrodes and a tissue culture blank insert were equilibrated for at least 20 minutes in MatTek medium with the power off prior to checking calibration. The background resistance was measured with 1.5 ml media in the Endohm tissue chamber and 300 μl media in the blank insert. The top electrode was adjusted so that it was close to, but not making contact with, the top surface of the insert membrane. Background resistance of the blank insert was about 5-20 ohms. […] TER values are a function of the surface area of the tissue. […] By this method of calculation, TER will be expressed as both Ohms*cm2 and percent original TER value. […] Several different lipid types (see Table 1) were screened to select for lipids that are capable of enhancing the permeation of a biological agent across an epithelial cell monolayer. […] A reduction in TER correlates with the ability to enhance the permeation of a molecule and biological agent across an epithelia.

[5] = tested on: human-derived tracheal/bronchial epithelial cells (EpiAirway Tissue Model); experiment: Peptide YY (PYY) permeation across epithelial cell monolayer; format: cell-based
Description: (§1) Permeation is expressed as percent permeation and was calculated as follows: [formula] [formula] Terms
In the instant example, the ability of permeation enhancing lipids to enhance the permeation of the biological agent, peptide YY (PYY; molecular weight of 3.7 kDa) across the epithelial cell monolayer model system (EpiAirway™) was measured. Also, the efficacy of a permeation enhancing lipid to enhance the permeation of insulin across and epithelial cell layer was measured. Refer to Example 2 of the instant application for general protocol details.

[6] = tested on: human-derived tracheal/bronchial epithelial cells (EpiAirway Tissue Model); experiment: FITC-Dextran permeation assay across epithelial cell monolayer; format: cell-based; settings: for Mean % FD3 Permeation: FITC-dextran 3000 (Table 4)
Description: Each tissue insert was placed in an individual well containing 1 ml of MatTek basal media. On the apical surface of the inserts, 20 μl of test formulation was applied according to study design, and the samples were placed on a shaker (˜100 rpm) for 1.5 hours at 37° C. FITC-labeled dextran solution was added to inserts apically and a fluorescence measurement was taken from the basolateral media after the incubation period. Two hundred microliters of the basal media for each test formulation was transferred to a dark-wall fluorescent reading plate. Each test formulation was tested in triplicate. Fluorescent intensity was measured at 470 nM with the microplate fluorescence reader FLx800 (Bio-Tek Instruments, Inc., Winooski, Vt.). A FITC labeled dextran with a molecular weight of 3 kDA, 10 kDA, 20 kDA, 40 kDA, 70 kDA and/or 500 kDA was used to assess the ability of individual lipids to deliver a model protein across an epithelia.
as §1
PBS and 0.3% Triton-X100™ served as […]. […] FD permeation was presented as the percent of FD that crossed from the apical side of the epithelial cell monolayer to the basolateral cell surface.

[7] = tested on: human-derived tracheal/bronchial epithelial cells (EpiAirway Tissue Model); experiment: in vitro
Description: Normal, human-derived tracheal/bronchial epithelial cells will serve as the model cell system for assessing the lipids listed in Table 1. The cells are supplied by MatTek Corp. (Ashland, Mass.) as the EpiAirway™ Tissue Model. The cells are provided as a confluent monolayer on a Millipore Milicell-CM cell culture insert with a pore size of 0.4 μM, inner diameter of 0.8 cm and surface area of 0.6 cm^2 and comprised of transparent hydrophilic Teflon (PTFE). Upon receipt, the membranes are cultured in 1 ml basal media (phenol red-free and hydrocortisone-free Dulbecco's Modified Eagle's Media (DMEM) at 37° C./5% CO2 for 24-48 hours before use. Inserts are feed for each day of recovery.
The amount of cell death was assayed by measuring the loss of lactate dehydrogenase (LDH) from the cells using a CytoTox 96 Cytotoxicity Assay Kit (Promega Corp., Madison, Wis.). A treatment of 1% Octylphenolpoly(ethyleneglycolether)x (Triton X-100™) diluted in PBS was used as a lysis control. One percent Triton X-100™ mediated cell lysis was normalized to 100%. For basal-lateral LDH levels, triplicates of 50 μl of the basal media were loaded into a 96-well assay plate. For apical LDH levels, 150 μl of Epi-Cm was added to the apical side of each chamber and mixed by pipeting. One hundred and fifty microliters was then removed and diluted 2-fold prior to performing the LDH assay. All apical LDH assay were performed in triplicate and with 50 μl of the diluted test solution. Fresh, cell-free culture medium will be used as a blank. Total LDH levels were determined by lysing cells in a final concentration of 0.9% Triton-X100™. Fifty microliters of substrate solution was added to each well and the plates incubated for 30 minutes at room temperature in the dark. Following incubation, 50 μl of stop solution was added to each well and the plates read on an optical density plate reader at […]. Cytotoxicity was expressed as a percentage calculated by subtracting the average absorbance of the PBS control wells as the endogenously released LDH level and expressing that value relative to the average Triton-X100 control, which represents total LDH content. [formula] Osmolality
For the instant application, phosphate buffered saline (PBS) served as a negative control for both the TER assay and LDH (cytotoxicity) assay. […] TER measurements and LDH levels were taken immediately after a one hour treatment of the cultured cells with each lipid, unless specified otherwrise.
TER reduction was expressed as the percent decrease in TER value from time zero to one hour post-treatment. Thus, greater percent reduction in TER represents less electrical resistance across the epithelial cell monolayer and consequently greater epithelial cell permeation. Cytotoxicity (LDH levels) for each lipid was expressed as a percent of the LDH levels measured after Triton-X100 treatment of the cells. Triton-X100™ LDH levels were normalized to 100%.

[8] = lipid 500 μM / PYY 13.67 mg/mL (High)
[9] = lipid / PYY 10 mg/mL, listed as PAF-antangonist

In the case of “2-alkyl-4-hydroxyquinolines [pyo compound]”, the “concentration producing ciliostasis / inhibiting ciliary motility” value [1] is given as 50 µg/mL.

With `CCCCCCCCCCCCC/C=C/[C@@H](O)[C@@H](N)CO[C@@H]1O[C@H](CO)[C@@H](O)[C@H](O)[C@H]1O` [Glucosyl-sphingosine, D-Glucosyl-β1-1′-D-erythro-Sphingosine] the “time to full TER recovery (PBS control levels)” value ([2]; after 1, 3, 5, 15 and 30 minute treatments) was “fully recovered within one hour”, the “time to full TER recovery (PBS control levels)” value ([2]; after 60 minute treatment) was “did not reach PBS TER control levels until three hours post-treatment” and the “MTT levels (cell viability)” value ([3]; compared with PBS negative control (Example 5)) was “MTT levels comparable to that of the PBS negative control”. For the same molecule, the “% Cell Viability” value [3, 8] was 109%, the “% Original TER” value ([4]; lipid 500 μM / PYY 13.67 mg/mL (High), listed as Glucosyl Sphingosine) was 12% and the “% Original TER” value ([4]; lipid 500 μM / PYY 13.67 mg/mL (High), listed as glucosyl sphingosine) was “reduced TER to levels equivalent of PN159”. For the same molecule, the “% PYY Permeation” value [5, 8] was 1.17% and the “% FITC-Dextran Permeation FD3” value ([6]; lipid 500 μM (Table 5)) was 4%.

For `CCCCCCCCCCCCCCCCOC[C@H](COP(=O)([O-])OCCCCCC[N+](C)(C)C)OC(C)=O` [PAF-antagonist, 1-O-Hexadecyl-2-O-Acetyl-sn-Glycero-3-Phospho(N,N,N-trimethyl) Hexanolamine], the “Mean % Relative Cytotoxic Effect (LDH)” value ([7]; lipid 500 μM (Table 4)) was 8%, the “Mean % Relative Cytotoxic Effect (LDH)” value ([7]; lipid 1000 μM (Table 4)) was 10% and the “Mean % of Original TER Value” ([4]; lipid 500 μM (Table 4)) was 20%. For the same molecule, the “Mean % of Original TER Value” ([4]; lipid 1000 μM, lower value = greater TER reduction (Table 4)) was 9%, the “% Original TER” value ([4]; lipid / PYY 10 mg/mL) was “reduced TER below that of the positive control PN159 and equivalent to the positive control Special Sauce” and the “% Original TER” value [4, 9] was 2%. For the same molecule, the “% PYY Permeation” value ([5]; lipid / PYY 10 mg/mL) was “enhanced permeation of PYY equivalent to or above the positive control PN159”, the “% PYY Permeation” value [5, 9] was 2.4% and the “Mean % FD3 Permeation” value ([6]; lipid 500 μM) was 6%. For the same molecule, the “% FITC-Dextran Permeation FD10” value ([6]; lipid 1000 μM) was 5%, the “% FITC-Dextran Permeation FD40” value ([6]; lipid 1000 μM) was 2% and the “% FITC-Dextran Permeation FD3” value ([6]; lipid 1000 μM (Table 5)) was 11%. The “Mean % FD3 Permeation” value ([6]; lipid 1000 μM) was 11% and the “permeation of FD3 relative to negative controls” value ([6]; text summary of Table 4) was “enhanced the permeation of FD3 above that of the negative controls”.

For rhamnolipid, the “effect of limited exposure of tracheal explants” value [1] is listed as “ciliostasis”.
